Values after ≈ are worked out from the molar mass of the structure shown.
Assays:
E. coli (NCTC 10418) = experiment: In vitro antibacterial activity, M.I.C. against E. coli; format: cell-based; conditions: Escherichia coli, NCTC10418
S. aureus (Oxford) = experiment: In vitro antibacterial activity, M.I.C. against S. aureus; format: cell-based; conditions: Staphylococcus aureus

Structure (SMILES)	MIC (E. coli (NCTC 10418))	MIC (S. aureus (Oxford))
CO/N=C(\C(=O)N[C@@H]1C(=O)N2C(C(=O)[O-])=C(C3CCOC3=O)CS[C@H]12)c1csc(N)n1.[Na+] (mixture of isomers) [Example 15, Sodium (6R,7R)-7-[2-(2-aminothiazol-4-yl)-2-(Z)-methoxyiminoacetamido]-3-[(3RS)-2-oxotetrahydrofuran-3-yl]ceph-3-em-4-carboxylate]	0.25 µg/mL	4 µg/mL
CO/N=C(\C(=O)N[C@@H]1C(=O)N2C(C(=O)O)=C(C3COC(=O)C3)CS[C@H]12)c1csc(N)n1 (stereo partly shown) [Example 8]	32 µg/mL (≈ 68.5 µM)	4 µg/mL (≈ 8.56 µM)
Nc1nc(/C(=N/OCC(=O)O)C(=O)N[C@@H]2C(=O)N3C(C(=O)O)=C(C4CCC(=O)O4)CS[C@H]23)cs1 (stereo partly shown) [Example 10]	0.12 µg/mL (≈ 0.235 µM)	8 µg/mL (≈ 15.6 µM)
Nc1nc(/C(=N/O)C(=O)N[C@@H]2C(=O)N3C(C(=O)O)=C(C4CCC(=O)O4)CS[C@H]23)cs1 (mixture of isomers) [Example 5, (6R,7R)-7-[2-(2-Aminothiazol-4-yl)-2-(Z)-hydroxyiminoacetamido]-3-[(5RS)-2-oxotetrahydrofuran-5-yl)ceph-3-em-4-carboxylic acid]	< 0.03 µg/mL	0.25 µg/mL
CO/N=C(\C(=O)N[C@@H]1C(=O)N2C(C(=O)O)=C(C3CCC(=O)O3)CS[C@H]12)c1csc(N)n1 (mixture of isomers) [Example 3, Sodium (6R,7R)-7-[2-(2-Aminothiazol-4-yl)-2-(Z)-methoxyiminoacetamido]-3-[(5RS)-2-oxotetrahydrofuran-5-yl]ceph-3-em-4-carboxylate]	< 0.03 µg/mL	1 µg/mL
